The values below come from the OligoGym collection.

HELM strings list units from the 5' end as sugar, base in round brackets, then linkage (d deoxyribose, r ribose, m 2'-O-methyl, p phosphodiester). Strings are as the collection lists them; they lack the last nucleoside at the 3' end of the tested compound. [moe] = 2'-O-(2-methoxyethyl) (MOE); [sp] = phosphorothioate linkage; [m5C] = 5-methylcytosine

In this series the target is UBE3A-ATS. Briefly: mouse, dose not given. Particulars: ASO.

“RNA1{[moe](T)[sp].[moe](T)p.[moe](G)p.[moe](G)p.d(T)[sp].d([m5C])[sp].d(A)[sp].d(T)[sp].d([m5C])[sp].d(T)[sp].d([m5C])[sp].d(G)[sp].d(G)[sp].d(G)[sp].[moe](T)p.[moe](A)p.[moe](T)p.[moe](A)[sp].[moe](T)}$$$$ (last 3' nucleoside missing)” displayed a 3 h FOB score of 4 score 0-7. The substance “RNA1{[moe](A)[sp].[moe](A)p.[moe]([m5C])p.[moe](G)p.d([m5C])[sp].d(A)[sp].d(A)[sp].d(T)[sp].d(G)[sp].d(T)[sp].d(A)[sp].d(T)[sp].d([m5C])[sp].d(A)[sp].[moe](G)p.[moe](G)p.[moe]([m5C])p.[moe](A)[sp].[moe](A)}$$$$ (last 3' nucleoside missing)” registered a 3 h FOB score of 2 score 0-7. The substance “RNA1{[moe](T)[sp].[moe](G)p.[moe](T)p.[moe](G)p.d(T)[sp].d(G)[sp].d(T)[sp].d(T)[sp].d(T)[sp].d(T)[sp].d(T)[sp].d([m5C])[sp].d([m5C])[sp].d(A)[sp].[moe](T)p.[moe](T)p.[moe](T)p.[moe](T)[sp].[moe](T)}$$$$ (last 3' nucleoside missing)” returned a 3 h FOB score of 1 score 0-7.

“RNA1{[moe](G)[sp].[moe](A)p.[moe](T)p.[moe](T)p.[moe]([m5C])p.d(A)[sp].d(A)[sp].d(T)[sp].d(A)[sp].d(G)[sp].d(T)[sp].d(G)[sp].d(T)[sp].d(A)[sp].d(G)[sp].[moe](G)p.[moe](T)p.[moe](G)[sp].[moe](A)}$$$$ (last 3' nucleoside missing)” showed a 3 h FOB score of 3.3 score 0-7. On to “RNA1{[moe](G)[sp].[moe]([m5C])p.[moe](T)p.[moe](T)p.[moe](A)p.d(T)[sp].d(G)[sp].d(T)[sp].d(A)[sp].d(G)[sp].d([m5C])[sp].d(T)[sp].d([m5C])[sp].d(A)[sp].d(G)[sp].[moe]([m5C])p.[moe](T)p.[moe]([m5C])[sp].[moe](A)}$$$$ (last 3' nucleoside missing)”, for which the 3 h FOB score was 1 score 0-7.

On to “RNA1{[moe](G)[sp].[moe]([m5C])p.[moe](A)p.[moe](T)p.[moe](G)p.d(A)[sp].d(T)[sp].d(T)[sp].d([m5C])[sp].d(T)[sp].d(A)[sp].d(A)[sp].d([m5C])[sp].d([m5C])[sp].d(A)[sp].[moe](T)p.[moe](A)p.[moe](G)[sp].[moe](A)}$$$$ (last 3' nucleoside missing)”, for which the 3 h FOB score amounted to 1 score 0-7. In the case of “RNA1{[moe](A)[sp].[moe]([m5C])p.[moe](T)p.[moe](A)p.[moe](T)p.d([m5C])[sp].d([m5C])[sp].d(T)[sp].d(G)[sp].d([m5C])[sp].d(A)[sp].d(T)[sp].d([m5C])[sp].d([m5C])[sp].d(G)[sp].[moe](A)p.[moe](G)p.[moe](G)[sp].[moe]([m5C])}$$$$ (last 3' nucleoside missing)”, the 3 h FOB score was found to be 1 score 0-7. The substance “RNA1{[moe](G)[sp].[moe](T)p.[moe]([m5C])p.[moe](A)p.[moe](T)p.[moe]([m5C])[sp].d(T)[sp].d([m5C])[sp].d(G)[sp].d(G)[sp].d(G)[sp].d(T)[sp].d(A)[sp].d(T)[sp].[moe](A)p.[moe](T)[sp].[moe](A)}$$$$ (last 3' nucleoside missing)” registered a 3 h FOB score of 4.7 score 0-7.

Regarding “RNA1{[moe](G)[sp].[moe](A)p.[moe](G)p.[moe]([m5C])p.[moe](T)[sp].d(A)[sp].d(T)[sp].d([m5C])[sp].d(T)[sp].d(G)[sp].d(T)[sp].d(A)[sp].d([m5C])[sp].[moe](A)p.[moe](A)p.[moe](A)[sp].[moe](A)}$$$$ (last 3' nucleoside missing)”, the 3 h FOB score was 6 score 0-7. Turning to “RNA1{[moe](T)[sp].[moe](G)p.[moe]([m5C])p.[moe](T)p.[moe]([m5C])p.[moe](A)[sp].d(G)[sp].d(T)[sp].d(T)[sp].d(A)[sp].d(G)[sp].d(G)[sp].d(T)[sp].d(T)[sp].[moe](A)p.[moe](G)[sp].[moe](T)}$$$$ (last 3' nucleoside missing)”, the 3 h FOB score turned out to be 5.7 score 0-7.
